Values quoted from earlier work in paper PMC11528414 (Journal of the American Chemical Society, 2024).

Tested on: PANC-1
Conditions: read-out: Reported Anticancer Activity PANC-1 (IC50); reported values

## C[N+]1=C2C=C(NCCc3ccc(O)cc3)C(=O)c3[nH]cc(c32)CC1 [makaluvamine J]
  IC50: 54 nM
